Results on 4 molecules are retold here after ChEMBL document CHEMBL2074427, “Identification of a mechanism by which the methylmercury antidotes N-acetylcysteine and dimercaptopropanesulfonate enhance urinary metal excretion: transport by the renal organic anion transporter-1” (Mol Pharmacol, 2002).

The target in data set [1] is T1, Solute carrier family 22 member 6 (Rattus norvegicus, UniProt O35956).
T1 sequence (O35956 whole entry): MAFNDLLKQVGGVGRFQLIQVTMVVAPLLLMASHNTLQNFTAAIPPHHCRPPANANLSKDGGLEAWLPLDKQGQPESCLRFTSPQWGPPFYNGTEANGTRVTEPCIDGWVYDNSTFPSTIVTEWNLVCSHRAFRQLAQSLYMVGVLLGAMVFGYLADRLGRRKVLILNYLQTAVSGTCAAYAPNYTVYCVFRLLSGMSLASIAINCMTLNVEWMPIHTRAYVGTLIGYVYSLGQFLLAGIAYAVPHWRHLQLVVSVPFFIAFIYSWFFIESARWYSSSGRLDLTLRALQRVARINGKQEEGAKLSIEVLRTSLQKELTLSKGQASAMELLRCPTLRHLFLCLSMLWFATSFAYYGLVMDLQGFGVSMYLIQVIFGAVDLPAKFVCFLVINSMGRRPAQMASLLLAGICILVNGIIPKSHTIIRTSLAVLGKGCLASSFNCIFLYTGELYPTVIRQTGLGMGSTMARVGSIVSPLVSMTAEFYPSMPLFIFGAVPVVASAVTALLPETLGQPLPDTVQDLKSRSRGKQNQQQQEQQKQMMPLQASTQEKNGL
Put plainly: TP_TRANSPORTER: inhibition of PAH uptake in Xenopus laevis oocytes. In kind it is functional, cell-based, Oocyte.

In data set [2] the target is T2, Organic anion transporter 3 (Rattus norvegicus, UniProt Q9R1U7).
T2 sequence (Q9R1U7 whole entry): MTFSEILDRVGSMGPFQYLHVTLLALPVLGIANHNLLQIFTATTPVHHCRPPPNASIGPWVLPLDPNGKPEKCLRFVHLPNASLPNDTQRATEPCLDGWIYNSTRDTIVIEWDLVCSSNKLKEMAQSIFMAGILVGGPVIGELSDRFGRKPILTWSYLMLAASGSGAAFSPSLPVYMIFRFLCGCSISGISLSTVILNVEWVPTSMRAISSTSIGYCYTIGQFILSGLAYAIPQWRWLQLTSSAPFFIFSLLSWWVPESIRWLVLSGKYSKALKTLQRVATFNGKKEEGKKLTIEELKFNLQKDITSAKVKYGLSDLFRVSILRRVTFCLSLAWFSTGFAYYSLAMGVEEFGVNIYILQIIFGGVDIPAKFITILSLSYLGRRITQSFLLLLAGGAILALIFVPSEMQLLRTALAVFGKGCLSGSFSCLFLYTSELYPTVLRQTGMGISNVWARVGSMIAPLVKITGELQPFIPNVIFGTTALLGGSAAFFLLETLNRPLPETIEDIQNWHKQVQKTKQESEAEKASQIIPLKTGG
The data set can be described thus: (§1) TP_TRANSPORTER: uptake in Xenopus laevis oocytes. In kind it is functional, cell-based. To be noted: oocyte.

The target in data set [3] is T1, Solute carrier family 22 member 6. Described as §1. To be noted: oocyte. In kind it is functional, cell-based.

Regarding `CC(=O)N[C@@H](CS)C(=O)O` [ACETYLCYSTEINE], the Ki (usually a dissociation constant, usually derived from enzyme kinetics or from competition with a known ligand) in data set [1] came to 2 mM.

Take MeHg-NAC: the Activity entry in data set [2] was “is not a substrate [-]”. Moreover, in data set [3], the Km (commonly the concentration of substrate that gives half-maximal velocity) came to 31 µM.

As for MeHg-glutathione, the Activity result in data set [2] and in data set [3] was “is not a substrate [-]” throughout. Regarding MeHg-penicillamine, the Activity entry in data set [2] and in data set [3] was “is not a substrate [-]” in each case.
